Experiments:
[1] = target: T1, TDO (Homo sapiens (Human), UniProt P48775); test: A172 kynurenine cell-based assay; details: A172 human glioblastoma cells, 500 μM L-tryptophan, 48 hours; for IC50: read-out: A172 Kynurenine cell based assay, pIC50 (converted)
Procedure: (§1) Exemplary compounds of the invention were prepared, and tested to determine their effect as TDO and/or IDO inhibitors. Two different assays were employed: 1. a cell-based assay for detecting the effect of test compounds on kynurenine production in two different cancer cell types. This assay utilised cancer cells which expressed either TDO or IDO and as such was used as a means of testing compound activity at these two enzymes in a cell-based context. 2. a TDO and IDO biochemical coupled assay which utilised recombinantly produced and purified TDO and IDO enzymes in combination with the enzyme formamidase. This coupled enzyme system allowed conversion of N-formylkynurenine produced by TDO or IDO activity to kynurenine which was then quantified by fluorescence following addition of Erhlich's Reagent The protocols for these are set out below.
(§2) Cell Based Assay for Detection of Kynurenine Produced by TDO and/or IDO
(§3) A172 (human glioblastoma) and SKOV3 (human ovarian adenocarcinoma) cells were seeded in a 96 well plate at 30,000 or 40,000 cells per well respectively in phenol red-free RPMI supplemented with 10% FCS, 2 mM L-glutamine and 500 μM L-tryptophan. IDO expression was induced in the SKOV3 cells by the addition of 500 ng/ml IFN-γ. Cells were incubated at 37° C. with or without the addition of test compound. After 48 hours, the cells were removed by centrifugation and Erhlich's reagent was added to the supernatant. The Erhlich's reagent was incubated for 5 minutes before the absorbance was read at 490 nm.

[2] = target: T2, IDO (Homo sapiens (Human), UniProt P14902); test: SKOV3 kynurenine cell-based assay (IDO induced by IFN-γ); details: SKOV3 human ovarian adenocarcinoma cells, 500 ng/ml IFN-γ, 500 μM L-tryptophan, 48 hours; for IC50: read-out: SKOV3 Kynurenine cell based assay, pIC50 (converted)
T2 sequence (P14902 whole entry): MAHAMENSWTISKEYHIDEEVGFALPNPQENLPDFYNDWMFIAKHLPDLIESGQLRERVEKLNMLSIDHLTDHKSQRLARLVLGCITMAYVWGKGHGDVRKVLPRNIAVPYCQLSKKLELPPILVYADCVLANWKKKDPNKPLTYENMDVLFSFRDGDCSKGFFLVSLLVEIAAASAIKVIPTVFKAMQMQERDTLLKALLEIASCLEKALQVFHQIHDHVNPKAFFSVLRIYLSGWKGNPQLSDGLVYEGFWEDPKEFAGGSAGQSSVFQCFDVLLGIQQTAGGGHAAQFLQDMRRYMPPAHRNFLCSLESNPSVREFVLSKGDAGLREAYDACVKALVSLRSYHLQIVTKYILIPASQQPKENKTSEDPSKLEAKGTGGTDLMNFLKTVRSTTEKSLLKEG
Procedure: as §1, §2, §3

[3] = target: T1, TDO; test: hTDO biochemical coupled assay; details: 330 μM L-tryptophan, 17 minutes at room temperature
Procedure: as §1
(§4) TDO and IDO Biochemical Coupled Assay
(§5) Recombinant human IDO or TDO was incubated in 50 mM KPO4 (pH 7.0), 0.5 mM EGTA, 0.5 mM EDTA, 0.05% Triton™ X100, 20 mM ascorbate, 10 μM methylene blue, 500 U/ml catalase, 50 μg/ml KynB (kynurenine formamidase). TDO assays were carried out in the presence of 330 μM L-tryptophan, while IDO assays had the addition of 45 μM L-tryptophan. After incubation for 17 minutes at room temperature the reactions were stopped by the addition of Erhlich's reagent and incubated at room temperature for 5 minutes before the fluorescence was read (Ex 475, Em530).

[4] = target: T2, IDO; test: hIDO biochemical coupled assay; details: 45 μM L-tryptophan, 17 minutes at room temperature; for IC50: read-out: hIDO biochemical assay, pIC50 (converted)
Procedure: as §1, §4, §5

T1 sequence (P48775 whole entry): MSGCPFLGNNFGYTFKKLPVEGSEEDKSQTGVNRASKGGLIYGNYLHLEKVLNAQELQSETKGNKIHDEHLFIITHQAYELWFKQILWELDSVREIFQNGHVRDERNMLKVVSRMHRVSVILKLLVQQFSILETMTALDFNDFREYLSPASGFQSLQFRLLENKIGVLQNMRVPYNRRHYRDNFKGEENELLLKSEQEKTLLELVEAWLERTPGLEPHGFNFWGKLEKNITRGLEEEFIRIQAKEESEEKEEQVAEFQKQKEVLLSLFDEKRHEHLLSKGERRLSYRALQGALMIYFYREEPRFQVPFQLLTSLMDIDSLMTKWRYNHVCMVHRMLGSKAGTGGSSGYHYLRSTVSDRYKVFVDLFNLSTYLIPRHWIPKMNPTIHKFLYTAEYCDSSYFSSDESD

Row | Compound | A172 Kynurenine cell based assay, pIC50 [1] | SKOV3 Kynurenine cell based assay, pIC50 [2] | hTDO biochemical assay, pIC50 [3] | hIDO biochemical assay, pIC50 [4] | IC50 [1] [µM] | IC50 [2] [µM] | IC50 [4] [µM]
1 | O=C(Nc1cccn2cncc12)c1ccccc1 [Compound 1001] | +/− (+/− = pIC50 <4.00) | + (+ = pIC50 4.00-4.49) | +/− (+/− = pIC50 <4.00) | +/− (+/− = pIC50 <4.00) | – | – | –
2 | CS(=O)(=O)N1CCN(c2cc(Cl)cc3cncn23)CC1 [Compound 1013] | + (+ = pIC50 4.00-4.49) | + (+ = pIC50 4.00-4.49) | ++ (++ = pIC50 4.50-5.49) | ++ (++ = pIC50 4.50-5.49) | – | – | –
3 | CS(=O)(=O)N1CCC(Nc2cc(C(F)(F)F)cn3cncc23)CC1 [Compound 1009] | +/− (+/− = pIC50 <4.00) | ++ (++ = pIC50 4.50-5.49) | – | +/− (+/− = pIC50 <4.00) | – | – | –
4 | CC1(C)CN(c2cc(C(F)(F)F)cn3cncc23)CCN1S(C)(=O)=O [Compound 1014, 8-(3,3-dimethyl-4-(methylsulfonyl)piperazin-1-yl)-6-(trifluoromethyl)imidazo[1,5-a]pyridine] | – | – | – | – | ≤ 3.16 | ≤ 3.16 | –
5 | CS(=O)(=O)Nc1ccc(C2CCN(c3cc(C(F)(F)F)cc4cncn34)CC2)cc1 [Compound 1023] | ++ (++ = pIC50 4.50-5.49) | +++ (+++ = pIC50 ≥5.50) | – | – | – | – | –
6 | CS(=O)(=O)c1ccc(-c2cc(Cl)cn3cncc23)cc1 [Compound 1010, 6-chloro-8-(4-(methylsulfonyl)phenyl)imidazo[1,5-a]pyridine] | – | – | – | – | ≤ 3.16 | 32.4 to 100 | 3.24 to 31.6
7 | CC1(C)CN(c2cc(Cl)cn3cncc23)CCN1S(C)(=O)=O [Compound 1016] | +++ (+++ = pIC50 ≥5.50) | ++ (++ = pIC50 4.50-5.49) | – | – | – | – | –
8 | CS(=O)(=O)N1CCC(c2cc(C(F)(F)F)cn3cncc23)CC1 [Compound 1005, 8-(1-(methylsulfonyl)piperidin-4-yl)-6-(trifluoromethyl)imidazo[1,5-a]pyridine] | – | – | – | – | 3.24 to 31.6 | 32.4 to 100 | 3.24 to 31.6
9 | CS(=O)(=O)N1CCN(c2cc(C(F)(F)F)cc3cncn23)CC1 [Compound 1019] | ++ (++ = pIC50 4.50-5.49) | + (+ = pIC50 4.00-4.49) | ++ (++ = pIC50 4.50-5.49) | ++ (++ = pIC50 4.50-5.49) | – | – | –
10 | CS(=O)(=O)c1ccc(-c2cc(C(F)(F)F)cn3cncc23)cc1 [Compound 1007] | +++ (+++ = pIC50 ≥5.50) | + (+ = pIC50 4.00-4.49) | – | + (+ = pIC50 4.00-4.49) | – | – | –
11 | CS(=O)(=O)N1CCN(c2cc(C(F)(F)F)cn3cncc23)CC1 [Compound 1003] | ++ (++ = pIC50 4.50-5.49) | + (+ = pIC50 4.00-4.49) | – | +/− (+/− = pIC50 <4.00) | – | – | –
12 | OCCc1cc(C(F)(F)F)cn2cncc12 [Compound 1008] | +/− (+/− = pIC50 <4.00) | + (+ = pIC50 4.00-4.49) | +/− (+/− = pIC50 <4.00) | +/− (+/− = pIC50 <4.00) | – | – | –
13 | CS(=O)(=O)N1CCC(c2cc(C(F)(F)F)cc3cncn23)CC1 [Compound 1017] | ++ (++ = pIC50 4.50-5.49) | +/− (+/− = pIC50 <4.00) | + (+ = pIC50 4.00-4.49) | + (+ = pIC50 4.00-4.49) | – | – | –
14 | CC1(C)CN(c2cc(Br)cn3cncc23)CCN1S(C)(=O)=O [Compound 1022] | +++ (+++ = pIC50 ≥5.50) | +++ (+++ = pIC50 ≥5.50) | – | – | – | – | –
15 | CC(=O)N1CCN(c2cc(C(F)(F)F)cn3cncc23)CC1 [Compound 1002] | ++ (++ = pIC50 4.50-5.49) | + (+ = pIC50 4.00-4.49) | – | +/− (+/− = pIC50 <4.00) | – | – | –
16 | CS(=O)(=O)N1CCN(c2cc(Cl)cn3cncc23)CC1 [Compound 1006] | ++ (++ = pIC50 4.50-5.49) | + (+ = pIC50 4.00-4.49) | – | ++ (++ = pIC50 4.50-5.49) | – | – | –
17 | CC(=O)N1CCC(c2cc(C(F)(F)F)cn3cncc23)CC1 [Compound 1004] | + (+ = pIC50 4.00-4.49) | +/− (+/− = pIC50 <4.00) | – | + (+ = pIC50 4.00-4.49) | – | – | –
18 | CS(=O)(=O)c1ccc(-c2cc(Cl)cc3cncn23)cc1 [Compound 1012] | ++ (++ = pIC50 4.50-5.49) | + (+ = pIC50 4.00-4.49) | – | ++ (++ = pIC50 4.50-5.49) | – | – | –

Results, then the compound that gave them:

Row | A172 Kynurenine cell based assay, pIC50 [1] | SKOV3 Kynurenine cell based assay, pIC50 [2] | hTDO biochemical assay, pIC50 [3] | hIDO biochemical assay, pIC50 [4] | IC50 [1] [µM] | IC50 [2] [µM] | IC50 [4] [µM] | Compound
19 | ++ (++ = pIC50 4.50-5.49) | +++ (+++ = pIC50 ≥5.50) | – | – | – | – | – | CC(=O)Nc1ccc(C2CCN(c3cc(C(F)(F)F)cc4cncn34)CC2)cc1 [Compound 1024]
20 | ++ (++ = pIC50 4.50-5.49) | +++ (+++ = pIC50 ≥5.50) | – | – | – | – | – | CC1(C)CN(c2cc(Cl)cc3cncn23)CCN1S(C)(=O)=O [Compound 1032]
21 | ++ (++ = pIC50 4.50-5.49) | ++ (++ = pIC50 4.50-5.49) | – | – | – | – | – | CS(=O)(=O)N1CCC(Nc2cc(Cl)cc3cncn23)CC1 [Compound 1030]
22 | ++ (++ = pIC50 4.50-5.49) | ++ (++ = pIC50 4.50-5.49) | ++ (++ = pIC50 4.50-5.49) | ++ (++ = pIC50 4.50-5.49) | – | – | – | CN1C(=O)N(C2CCN(c3cc(C(F)(F)F)cc4cncn34)CC2)C(=O)C1(C)C [Compound 1034]
23 | ++ (++ = pIC50 4.50-5.49) | +++ (+++ = pIC50 ≥5.50) | – | – | – | – | – | CNC(=O)c1ccc(C2CCN(c3cc(C(F)(F)F)cc4cncn34)CC2)cc1 [Compound 1025]
24 | +++ (+++ = pIC50 ≥5.50) | ++ (++ = pIC50 4.50-5.49) | – | – | – | – | – | CC(=O)N1CCN(c2cc(C(F)(F)F)cn3cncc23)CC1(C)C [Compound 1029]
25 | ++ (++ = pIC50 4.50-5.49) | ++ (++ = pIC50 4.50-5.49) | – | ++ (++ = pIC50 4.50-5.49) | – | – | – | CS(=O)(=O)NC1CCN(c2cc(C(F)(F)F)cc3cncn23)CC1 [Compound 1027]
26 | +++ (+++ = pIC50 ≥5.50) | ++ (++ = pIC50 4.50-5.49) | – | – | – | – | – | CC(=O)N1CCN(c2cc(Cl)cn3cncc23)CC1(C)C [Compound 1033]
27 | +++ (+++ = pIC50 ≥5.50) | ++ (++ = pIC50 4.50-5.49) | – | ++ (++ = pIC50 4.50-5.49) | – | – | – | OC1(c2cc(C(F)(F)F)cn3cncc23)CCCCC1 [Compound 1028]
28 | +++ (+++ = pIC50 ≥5.50) | +++ (+++ = pIC50 ≥5.50) | – | – | – | – | – | CC1(C)CN(c2cc(C(F)(F)F)cc3cncn23)CCN1S(C)(=O)=O [Compound 1026]
29 | +++ (+++ = pIC50 ≥5.50) | +++ (+++ = pIC50 ≥5.50) | – | – | – | – | – | CC(=O)N1CCN(c2cc(Cl)cc3cncn23)CC1(C)C [Compound 1031]

Source: US10501458B2, “Substituted bicyclic fused ring compounds as indoleamine-2,3-dioxygenase inhibitors” (Merck Sharp & Dohme Corp., priority 2015, dated 2019)
